Test results taken from US10729680B2, “5-substituted 2-(morpholin-4-yl)-1,7-naphthyridines” (BAYER PHARMA AKTIENGESELLSCHAFT, priority 2016, dated 2020).

Molecular target: full-length human ATR protein (ATR/ATRIP) (Homo sapiens (Human), UniProt Q13535)
Test: Binding Assay ATR (TR-FRET, tracer A displacement)
Conditions: displacement of fluorescent tracer A from GST-ATR/ATRIP
Source text: To determine of binding activity of the test compounds, full-length human ATR protein was expressed and purified together with ATRIP as described above. Furthermore, a fluorescently labelled compound (tracer A as described above) was used as a tracer molecule. Detection of the binding event of the tracer was achieved by time-resolved fluorescence energy transfer (TR-FRET). We used an anti-GST-Terbium antibody (CisBio) that binds to the GST-tag at the N-terminus of ATR-kinase. Excitation of Terbium with 337 nm light results in emission of fluorescent light with 545 nm. In case a tetrameric complex has formed (antiGST-Tb+GST-ATR+Strp2-ATRIP+tracer), part of the energy will be transferred from the Terbium to the fluorophore that itself emits light of 570 nm. Displacement of the fluorescent tracer by a test compound leads to a reduction of the TR-FRET-signal.
For the assay 50 nl of a 100-fold concentrated solution of the test compound in DMSO was pipetted into a black low volume 384 well microtiter plate (MTP, Greiner Bio-One, Frickenhausen, Germany). To prepare the ATR-working solution, ATR/ATRIP stock solution was diluted in assay buffer [50 mM HEPES (pH 7.0), 10 mM MgCl2, 1 mM DTT, 0.01% (w/v) Igepal, 0.01% (w/v) BSA] to 4.2 nM protein concentration (concentration may vary from lot to lot of protein preparation). AntiGST-Tb antibody was diluted to 4.2 nM. The ATR-working solution was incubated for 30 min at 22° C. prior to dispensing to pre-form the complex of antiGST-Tb+GST-ATR+ATRIP. Then, 3 μl of the ATR-working solution were added to the test compound and the mixture was incubated for 10 min at 22° C. to allow pre-binding of the test compounds to ATR/ATRIP. Then, 2 μl of a 100 nM solution of tracer A in assay buffer were added to the ATR-working solution. The resulting mixture was incubated for 30 min at 22° C. The measurement of the TR-FRET signal was performed in a standard HTRF-compatible MTP reader instrument (e.g. BMG Pherastar) by recording the fluorescence emissions at 545 nm and 570 nm after excitation at 337-350 nm. The ratio between emission at 570 nm divided by emission at 545 nm was calculated to give the well ratio. The experimental data (well ratios) were normalised by the following way: positive control contained ATR-working solution plus tracer A solution (=0% inhibition), the negative control contained all components except GST-ATR/ATRIP (=100% inhibition). Usually the compounds were tested on the same MTP in 11 different concentrations in the range of 20 μM to 0.1 nM (20 μM, 5.9 μM, 1.7 μM, 0.51 μM, 0.15 μM, 44 nM, 13 nM, 3.8 nM, 1.1 nM, 0.33 nM and 0.1 nM). The dilution series were prepared separately before the assay on the level of the 100 fold concentrated solutions in DMSO by serial 1:3.4 dilutions in duplicate values for each concentration. IC50 values were calculated by a 4 parameter fit using standard software (GraphPad prism or equivalent).

Sequence of full-length human ATR protein (ATR/ATRIP) (Q13535 other isoform, or with tags, fused parts or gaps): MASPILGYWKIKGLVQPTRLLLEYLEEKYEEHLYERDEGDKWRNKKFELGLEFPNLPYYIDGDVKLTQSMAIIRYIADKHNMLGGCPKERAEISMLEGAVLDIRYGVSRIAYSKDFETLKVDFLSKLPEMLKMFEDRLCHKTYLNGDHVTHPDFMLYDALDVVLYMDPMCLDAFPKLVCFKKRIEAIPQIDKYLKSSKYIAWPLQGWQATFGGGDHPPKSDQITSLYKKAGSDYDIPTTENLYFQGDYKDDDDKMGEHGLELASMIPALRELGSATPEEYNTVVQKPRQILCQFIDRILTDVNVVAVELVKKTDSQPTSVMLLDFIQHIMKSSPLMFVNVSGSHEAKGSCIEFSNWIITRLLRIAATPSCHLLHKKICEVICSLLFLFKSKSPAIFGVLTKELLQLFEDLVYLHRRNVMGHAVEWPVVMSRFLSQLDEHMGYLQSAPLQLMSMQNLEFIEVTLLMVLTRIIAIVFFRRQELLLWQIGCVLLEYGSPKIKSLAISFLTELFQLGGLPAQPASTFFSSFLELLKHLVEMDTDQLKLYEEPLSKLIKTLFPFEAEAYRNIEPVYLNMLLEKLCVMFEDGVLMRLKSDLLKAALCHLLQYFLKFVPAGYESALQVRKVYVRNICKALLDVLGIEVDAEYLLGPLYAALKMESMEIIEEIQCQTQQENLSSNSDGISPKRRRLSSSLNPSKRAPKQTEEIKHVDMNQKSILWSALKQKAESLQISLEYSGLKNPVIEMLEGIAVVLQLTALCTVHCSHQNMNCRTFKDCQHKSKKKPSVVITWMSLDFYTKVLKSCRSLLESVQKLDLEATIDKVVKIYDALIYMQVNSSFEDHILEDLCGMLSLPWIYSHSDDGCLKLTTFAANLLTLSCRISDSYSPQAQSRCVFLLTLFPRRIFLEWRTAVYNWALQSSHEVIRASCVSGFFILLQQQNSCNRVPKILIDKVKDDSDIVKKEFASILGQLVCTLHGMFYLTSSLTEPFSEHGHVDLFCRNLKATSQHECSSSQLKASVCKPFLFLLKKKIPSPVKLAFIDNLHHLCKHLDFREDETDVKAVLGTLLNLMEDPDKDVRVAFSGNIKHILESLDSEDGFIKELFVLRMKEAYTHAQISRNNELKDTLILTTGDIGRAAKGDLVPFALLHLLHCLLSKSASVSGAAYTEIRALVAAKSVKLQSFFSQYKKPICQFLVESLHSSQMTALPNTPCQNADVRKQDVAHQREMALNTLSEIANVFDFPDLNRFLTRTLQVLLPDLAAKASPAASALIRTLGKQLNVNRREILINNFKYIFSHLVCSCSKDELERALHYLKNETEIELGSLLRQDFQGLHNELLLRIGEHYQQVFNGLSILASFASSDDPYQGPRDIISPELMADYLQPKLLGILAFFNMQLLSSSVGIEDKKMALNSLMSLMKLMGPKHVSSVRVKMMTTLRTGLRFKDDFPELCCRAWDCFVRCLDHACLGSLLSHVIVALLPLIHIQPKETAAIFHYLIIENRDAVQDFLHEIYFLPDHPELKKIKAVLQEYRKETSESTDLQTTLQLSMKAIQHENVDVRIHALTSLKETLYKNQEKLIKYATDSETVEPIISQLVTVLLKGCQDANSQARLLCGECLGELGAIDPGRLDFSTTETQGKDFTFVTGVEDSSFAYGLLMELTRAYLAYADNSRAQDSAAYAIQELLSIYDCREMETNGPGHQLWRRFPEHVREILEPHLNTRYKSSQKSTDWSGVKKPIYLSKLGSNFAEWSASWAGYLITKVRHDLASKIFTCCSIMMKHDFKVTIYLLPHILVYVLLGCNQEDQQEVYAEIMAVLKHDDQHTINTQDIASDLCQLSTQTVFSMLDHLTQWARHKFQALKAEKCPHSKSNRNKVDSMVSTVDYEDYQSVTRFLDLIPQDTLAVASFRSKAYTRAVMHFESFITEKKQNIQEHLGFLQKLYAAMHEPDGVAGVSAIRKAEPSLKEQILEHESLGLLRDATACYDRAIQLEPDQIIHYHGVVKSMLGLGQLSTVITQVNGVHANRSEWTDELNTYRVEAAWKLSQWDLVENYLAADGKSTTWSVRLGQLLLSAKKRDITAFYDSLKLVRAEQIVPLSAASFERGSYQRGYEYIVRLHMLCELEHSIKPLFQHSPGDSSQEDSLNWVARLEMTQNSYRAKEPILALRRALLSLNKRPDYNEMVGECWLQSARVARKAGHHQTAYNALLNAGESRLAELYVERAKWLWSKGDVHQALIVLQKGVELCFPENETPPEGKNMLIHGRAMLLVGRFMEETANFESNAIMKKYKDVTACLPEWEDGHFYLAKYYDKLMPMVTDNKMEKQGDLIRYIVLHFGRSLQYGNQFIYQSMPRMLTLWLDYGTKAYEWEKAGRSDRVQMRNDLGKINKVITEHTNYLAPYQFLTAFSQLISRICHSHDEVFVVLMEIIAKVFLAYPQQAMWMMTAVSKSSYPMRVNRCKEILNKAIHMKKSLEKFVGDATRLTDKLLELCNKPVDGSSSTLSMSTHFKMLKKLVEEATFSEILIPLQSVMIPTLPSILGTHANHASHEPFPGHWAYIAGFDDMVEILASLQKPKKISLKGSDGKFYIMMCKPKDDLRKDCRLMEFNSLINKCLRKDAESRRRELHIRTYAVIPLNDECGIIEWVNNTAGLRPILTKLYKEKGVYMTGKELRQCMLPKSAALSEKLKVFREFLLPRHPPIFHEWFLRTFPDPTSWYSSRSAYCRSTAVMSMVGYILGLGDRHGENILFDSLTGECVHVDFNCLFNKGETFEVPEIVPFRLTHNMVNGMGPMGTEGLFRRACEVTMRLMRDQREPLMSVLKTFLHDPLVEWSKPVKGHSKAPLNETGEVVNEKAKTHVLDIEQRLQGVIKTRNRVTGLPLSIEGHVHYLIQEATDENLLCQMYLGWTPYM
Sequence of full-length human ATR protein (ATR/ATRIP) (Q8WXE1 other isoform, or with tags, fused parts or gaps partner): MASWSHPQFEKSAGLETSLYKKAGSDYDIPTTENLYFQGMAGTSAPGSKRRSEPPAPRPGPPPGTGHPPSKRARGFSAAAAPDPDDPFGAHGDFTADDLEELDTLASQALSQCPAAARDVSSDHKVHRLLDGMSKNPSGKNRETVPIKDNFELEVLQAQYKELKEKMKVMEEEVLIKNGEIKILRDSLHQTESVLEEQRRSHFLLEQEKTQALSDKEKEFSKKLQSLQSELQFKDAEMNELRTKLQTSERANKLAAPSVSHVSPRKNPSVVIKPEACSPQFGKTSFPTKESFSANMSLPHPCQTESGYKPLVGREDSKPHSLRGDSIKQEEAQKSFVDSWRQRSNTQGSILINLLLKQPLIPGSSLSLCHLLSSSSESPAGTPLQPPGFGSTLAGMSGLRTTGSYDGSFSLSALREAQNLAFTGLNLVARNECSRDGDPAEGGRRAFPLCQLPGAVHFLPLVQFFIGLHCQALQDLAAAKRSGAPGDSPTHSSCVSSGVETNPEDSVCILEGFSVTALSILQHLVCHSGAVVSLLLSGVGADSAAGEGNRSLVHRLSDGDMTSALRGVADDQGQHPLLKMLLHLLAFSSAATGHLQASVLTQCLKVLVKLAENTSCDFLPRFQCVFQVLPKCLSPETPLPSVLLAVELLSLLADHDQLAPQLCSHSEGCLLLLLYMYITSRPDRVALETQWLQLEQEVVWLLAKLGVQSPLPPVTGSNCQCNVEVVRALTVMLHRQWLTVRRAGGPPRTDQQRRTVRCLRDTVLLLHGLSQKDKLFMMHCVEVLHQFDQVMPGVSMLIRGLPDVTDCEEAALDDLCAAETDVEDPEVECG

## Cc1cnc(-c2ccn[nH]2)c2nc(N3CCOC[C@H]3C)cc(P(C)(C)=O)c12 [Example 18, 4-(dimethylphosphoryl)-5-methyl-2-[(3R)-3-methylmorpholin-4-yl]-8-(1H-pyrazol-5-yl)-1,7-naphthyridine]
  IC50: 0.0664 µM

## Cc1cnc(-c2ccn[nH]2)c2nc(N3CCOC[C@H]3C)cc(P(C)(=O)OCC(C)C)c12 (stereo partly drawn) [Example 19, 2-methylpropyl methyl{5-methyl-2-[(3R)-3-methylmorpholin-4-yl]-8-(1H-pyrazol-5-yl)-1,7-naphthyridin-4-yl}phosphinate]
  IC50: 0.0349 µM

## Cc1cnc(-c2ccn[nH]2)c2nc(N3CCOC[C@H]3C)cc(-c3ccccc3)c12 [Example 20, 5-methyl-2-[(3R)-3-methylmorpholin-4-yl]-4-phenyl-8-(1H-pyrazol-5-yl)-1,7-naphthyridine]
  IC50: 0.0244 µM

## Cc1cnc(-c2ccn[nH]2)c2nc(N3CCOC[C@H]3C)cc(-c3ccc4c(c3)OCCO4)c12 [Example 21, 4-(2,3-dihydro-1,4-benzodioxin-6-yl)-5-methyl-2-[(3R)-3-methylmorpholin-4-yl]-8-(1H-pyrazol-5-yl)-1,7-naphthyridine]
  IC50: 0.0179 µM

## Cc1cnc(-c2ccn[nH]2)c2nc(N3CCOC[C@H]3C)cc(-c3ccc(Cl)cc3Cl)c12 [Example 22, 4-(2,4-dichlorophenyl)-5-methyl-2-[(3R)-3-methylmorpholin-4-yl]-8-(1H-pyrazol-5-yl)-1,7-naphthyridine]
  IC50: 0.0164 µM

## Cc1cnc(-c2ccn[nH]2)c2nc(N3CCOC[C@H]3C)cc(-c3cccc(CO)c3)c12 [Example 23, (3-{5-methyl-2-[(3R)-3-methylmorpholin-4-yl]-8-(1H-pyrazol-5-yl)-1,7-naphthyridin-4-yl}phenyl)methanol]
  IC50: 0.014 µM

## Cc1cnc(-c2ccn[nH]2)c2nc(N3CCOC[C@H]3C)cc(-c3ccc(F)cc3)c12 [Example 24, 4-(4-fluorophenyl)-5-methyl-2-[(3R)-3-methylmorpholin-4-yl]-8-(1H-pyrazol-5-yl)-1,7-naphthyridine]
  IC50: 0.0347 µM

## COc1ccc(-c2cc(N3CCOC[C@H]3C)nc3c(-c4ccn[nH]4)ncc(C)c23)cc1 [Example 25, 4-(4-methoxyphenyl)-5-methyl-2-[(3R)-3-methylmorpholin-4-yl]-8-(1H-pyrazol-5-yl)-1,7-naphthyridine]
  IC50: 0.0254 µM

## Cc1cnc(-c2ccn[nH]2)c2nc(N3CCOC[C@H]3C)cc(-c3cc(F)cc(F)c3F)c12 [Example 26, 5-methyl-2-[(3R)-3-methylmorpholin-4-yl]-8-(1H-pyrazol-5-yl)-4-(2,3,5-trifluorophenyl)-1,7-naphthyridine]
  IC50: 0.0112 µM

## COc1ccc(-c2cc(N3CCOC[C@H]3C)nc3c(-c4ccn[nH]4)ncc(C)c23)cn1 [Example 27, 4-(6-methoxypyridin-3-yl)-5-methyl-2-[(3R)-3-methylmorpholin-4-yl]-8-(1H-pyrazol-5-yl)-1,7-naphthyridine]
  IC50: 0.0154 µM

## Cc1cnc(-c2ccn[nH]2)c2nc(N3CCOC[C@H]3C)cc(-c3ccc([S+](C)[O-])cc3)c12 (stereo partly drawn) [Example 29, 5-methyl-2-[(3R)-3-methylmorpholin-4-yl]-4-[4-(methylsulfinyl)phenyl]-8-(1H-pyrazol-5-yl)-1,7-naphthyridine]
  IC50: 0.0291 µM

## COc1cccc(-c2cc(N3CCOC[C@H]3C)nc3c(-c4ccn[nH]4)ncc(C)c23)c1F [Example 30, 4-(2-fluoro-3-methoxyphenyl)-5-methyl-2-[(3R)-3-methylmorpholin-4-yl]-8-(1H-pyrazol-5-yl)-1,7-naphthyridine]
  IC50: 0.0175 µM

## Cc1cnc(-c2ccn[nH]2)c2nc(N3CCOC[C@H]3C)cc(-c3ccccc3S(C)(=O)=O)c12 [Example 31, 5-methyl-2-[(3R)-3-methylmorpholin-4-yl]-4-[2-(methylsulfonyl)phenyl]-8-(1H-pyrazol-5-yl)-1,7-naphthyridine]
  IC50: 0.0472 µM

## Cc1cnc(-c2ccn[nH]2)c2nc(N3CCOC[C@H]3C)cc(-c3ccc(NS(C)(=O)=O)cc3)c12 [Example 32, N-(4-{5-methyl-2-[(3R)-3-methylmorpholin-4-yl]-8-(1H-pyrazol-5-yl)-1,7-naphthyridin-4-yl}phenyl)methanesulfonamide]
  IC50: 0.00431 µM

## Cc1cnc(-c2ccn[nH]2)c2nc(N3CCOC[C@H]3C)cc(C3=CCCC3)c12 [Example 33, 4-(cyclopent-1-en-1-yl)-5-methyl-2-[(3R)-3-methylmorpholin-4-yl]-8-(1H-pyrazol-5-yl)-1,7-naphthyridine]
  IC50: 0.0265 µM

## Cc1cnc(-c2ccn[nH]2)c2nc(N3CCOC[C@H]3C)cc(-c3ccc(C(=O)N(C)C)cc3)c12 [Example 35, N,N-dimethyl-4-{5-methyl-2-[(3R)-3-methylmorpholin-4-yl]-8-(1H-pyrazol-5-yl)-1,7-naphthyridin-4-yl}benzamide]
  IC50: 0.0288 µM

## Cc1cc(-c2cc(N3CCOC[C@H]3C)nc3c(-c4ccn[nH]4)ncc(C)c23)ccc1Cl [Example 36, 4-(4-chloro-3-methylphenyl)-5-methyl-2-[(3R)-3-methylmorpholin-4-yl]-8-(1H-pyrazol-5-yl)-1,7-naphthyridine]
  IC50: 0.456 µM

## COc1cccc(-c2cc(N3CCOC[C@H]3C)nc3c(-c4ccn[nH]4)ncc(C)c23)c1OC [Example 37, 4-(2,3-dimethoxyphenyl)-5-methyl-2-[(3R)-3-methylmorpholin-4-yl]-8-(1H-pyrazol-5-yl)-1,7-naphthyridine]
  IC50: 0.0138 µM

## COc1cc(Cl)ccc1-c1cc(N2CCOC[C@H]2C)nc2c(-c3ccn[nH]3)ncc(C)c12 [Example 38, 4-(4-chloro-2-methoxyphenyl)-5-methyl-2-[(3R)-3-methylmorpholin-4-yl]-8-(1H-pyrazol-5-yl)-1,7-naphthyridine]
  IC50: 0.0479 µM

## CSc1ccc(-c2cc(N3CCOC[C@H]3C)nc3c(-c4ccn[nH]4)ncc(C)c23)cc1 [Example 39, 5-methyl-2-[(3R)-3-methylmorpholin-4-yl]-4-[4-(methylsulfanyl)phenyl]-8-(1H-pyrazol-5-yl)-1,7-naphthyridine]
  IC50: 0.0319 µM

## Cc1cnc(-c2ccn[nH]2)c2nc(N3CCOC[C@H]3C)cc(-c3cccc(N(C)C)c3)c12 [Example 40, N,N-dimethyl-3-{5-methyl-2-[(3R)-3-methylmorpholin-4-yl]-8-(1H-pyrazol-5-yl)-1,7-naphthyridin-4-yl}aniline]
  IC50: 0.0343 µM

## Cc1cnc(-c2ccn[nH]2)c2nc(N3CCOC[C@H]3C)cc(-c3cccc(S(C)(=O)=O)c3)c12 [Example 41, 5-methyl-2-[(3R)-3-methylmorpholin-4-yl]-4-[3-(methylsulfonyl)phenyl]-8-(1H-pyrazol-5-yl)-1,7-naphthyridine]
  IC50: 0.0249 µM

## COc1cc(OC)cc(-c2cc(N3CCOC[C@H]3C)nc3c(-c4ccn[nH]4)ncc(C)c23)c1 [Example 42, 4-(3,5-dimethoxyphenyl)-5-methyl-2-[(3R)-3-methylmorpholin-4-yl]-8-(1H-pyrazol-5-yl)-1,7-naphthyridine]
  IC50: 0.112 µM

## Cc1cnc(-c2ccn[nH]2)c2nc(N3CCOC[C@H]3C)cc(-c3ccnc4ccccc34)c12 [Example 43, 5-methyl-2-[(3R)-3-methylmorpholin-4-yl]-8-(1H-pyrazol-5-yl)-4-(quinolin-4-yl)-1,7-naphthyridine]
  IC50: 0.036 µM

## Cc1cnc(-c2ccn[nH]2)c2nc(N3CCOC[C@H]3C)cc(-c3cccc4[nH]ccc34)c12 [Example 44, 4-(1H-indol-4-yl)-5-methyl-2-[(3R)-3-methylmorpholin-4-yl]-8-(1H-pyrazol-5-yl)-1,7-naphthyridine]
  IC50: 0.0355 µM
